In patent US7601739B2, “Compounds having antiestrogenic and tissue selective estrogenic properties, and compounds with anti-androgenic properties for treatment of prostate cancer and androgen receptor dependent diseases” (Virgina Commonwealth University, priority 2006, dated 2009):

How the values were obtained:
hER = test: Fluorescence-based competitive binding assay for hER (displacement of fluormone ES2); design: species or system human; details: RBA = IC50 of tamoxifen/IC50 of test molecule; tamoxifen set at 1
Protocol: The estrogen receptor competitor assay kits (Panvera, Madison, Wis.) were used to determine the ability of test molecules to displace the fluormone, ES2, from hER -ES2 or hER -ES2 complex. Serial dilutions of each test molecule were prepared in methanol or DMSO. The recombinant hER or hER (7 nM) was preincubated with ES2 (1 nM) in screening buffer. After the preincubation, the test molecules and ER-ES2 complex solution were added into the 96-well microplate to produce a final volume of 100 μl per well. The reaction was incubated at room temperature for 1 hr and the polarization values were measured by using fluorescence microplate reader, Polarion (Tecan, Research Triangle Park, N.C.) with excitation wavelength 495 nm and emission wavelength 535 nm. The polarization value versus test molecule concentration curves was analyzed by graphfit software to generate IC50 values.
In this assay, recombinant hER and the commercial synthetic estrogen, ES2 containing fluorescence polarization property, are used. This assay is a homogenous assay. When the assay solution only contains ES2, the solution exerts weak fluorescence polarization property due to the quick rotation of free ES2 molecule. […] Addition of the antiestrogen to the ES2/hER displaces ES2 from hER and results in the whole solution exerting less fluorescence polarization property than the solution without antiestrogen.

hERα [1] = biological target: T1, hERα (Homo sapiens, UniProt P03372); test: Yeast two-hybrid and filter lift assay of hERα dimerization; type: cell-based
T1 construct: the full length hERα was inserted into pGAD-GAL4 and pGBD-GAL4 vectors; expressed in transfected cells; host or cells: S. cerevisiae Y190 transformed with pGBT-hER (pGBKT7) and pGAD-hER (pGADT7)
T1 sequence (P03372 1-595) 1: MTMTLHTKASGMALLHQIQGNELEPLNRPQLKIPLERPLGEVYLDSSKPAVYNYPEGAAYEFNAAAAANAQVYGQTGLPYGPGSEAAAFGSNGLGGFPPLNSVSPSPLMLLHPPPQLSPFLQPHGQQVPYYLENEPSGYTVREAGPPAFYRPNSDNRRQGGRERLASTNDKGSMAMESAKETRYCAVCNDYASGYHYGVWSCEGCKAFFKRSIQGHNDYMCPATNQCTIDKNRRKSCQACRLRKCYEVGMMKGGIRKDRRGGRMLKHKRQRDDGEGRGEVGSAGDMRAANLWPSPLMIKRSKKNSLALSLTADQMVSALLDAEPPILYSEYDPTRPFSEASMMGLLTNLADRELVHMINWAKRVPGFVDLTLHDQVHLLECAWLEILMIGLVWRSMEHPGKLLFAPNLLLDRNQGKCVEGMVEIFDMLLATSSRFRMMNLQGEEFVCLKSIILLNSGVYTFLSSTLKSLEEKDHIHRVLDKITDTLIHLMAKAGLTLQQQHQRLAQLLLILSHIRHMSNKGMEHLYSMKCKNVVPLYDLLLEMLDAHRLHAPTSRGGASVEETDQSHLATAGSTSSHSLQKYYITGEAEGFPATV
T1 sequence (P03372 1-595) 2: T1 sequence (P03372 1-595) 1
Protocol: The transformed yeasts with yeast two-hybrid vectors were cultured in synthetic medium lacking trytophan, and leucine. […] After that, the membranes were soaked in 0.4 ml Z-buffer/Xgal (60 mM Na2HPO4, 40 mM NaH2PO410 mM KCl, 1 mM MgSO4, 0.1% SDS, 50 mM -mercaptoethanol, 20 mM Xgal). The pictures of the results were taken within 2 and 3 hours after the -galactosidase assay was processed.
Dimerization of estrogen receptor plays an essential role in regulating estrogen receptor's functions including DNA binding, transactivation, and coactivator recruitment. In this study, yeast two hybrid and filter lift assays were used to determine the ability of compounds 2 and 6 to interrupt the dimerization of hERα. For setting up yeast two hybrid assay, the full length hERα was inserted into pGAD-GAL4 and pGBD-GAL4 vectors. In pGBD-GAL4, hERα was fused to the GAL4 DNA binding domain through its N terminus. In pGAD-GA14, hERα was fused to the GAL4 activation domain through its N terminus. When the dimerization of hERα occurs mainly through its C terminus, the GAL4 DNA binding domain binds to the repeated GAL4 response element located in front of the β-gal reporter gene and the whole complex, GAL4-BD/hERα/hERα/GAL4-AD, turns on the synthesis of the product of β-gal reporter gene. […] Filter lift assay in which X-gal was used, was employed to qualitatively determine the activity of β-galactosidase.

hERα [2] = biological target: T2, hERα (Homo sapiens, UniProt P03372); test: Transient transfection reporter assay for hERα in MCF-7 cells; type: cell-based; design: Relative Estrogenic Activity: dose or concentration left out as unconfirmed
T2 construct: mammalian expression plasmid containing full length human ER cDNA, pCMV-hER; expressed in transfected cells; host or cells: MCF-7 human breast cancer cells
T2 sequence (P03372 1-595): T1 sequence (P03372 1-595) 1
Protocol: For the transient transfection reporter assays, the cells were plated in triplicate in 12-well plates at a density of 300000 cells/well in the phenol red-free DMEM (GIBCO/BRL, Grand Island, N.Y.) supplemented with 10% charcoal-stripped fetal bovine serum (Hyclone, Logan, Utah), Penicillin (100 unit/ml)/Streptomycin ([…]), 2 mML-glutamine and 1 mM sodium Pyruvate. 24 hrs later, the cells were transfected with three plasmids by using Superfect transfection kit (Qiagen, Valencia, Calif.). For the detection of hER activity, cells were transfected with 2 g hER expression plasmid (pCMV-ER ), 6 g luciferase reporter plasmid containing estrogen receptor response element (PGL-TATA-Luc), and 600 ng normalization control, β-galactosidase reporter plasmid (pCMV ). For the detection of hER activity, cells were transfected with 3 ug hER expression plasmid (pcDNA3.1-hER), 6 g luciferase reporter plasmid containing estrogen receptor response element (PGL-TATA-Luc), and 600 ng pCMV. For determining the influence of ER's major coactivator in breast, AIB 1, 2 g pcDNA3.1-AIB1 was added into the transfection plasmid solution mentioned previously.
The transfected cells were rinsed with PBS and treated with various concentrations of test molecules and one […] (vehicle, DMSO or methanol) in phenol red-free culture medium. After incubation for further 24 hrs, the cells were washed with PBS and lysed with lysis buffer (Pierce, Rockford, Ill.). The lysate was used to determine the luciferase activity for ER's activity and the β-galactosidase activity for the normalization of transfection efficiency.
For the luciferase activity assay, 20 μl of lysate and 100 μl luciferase assay buffer (Promega, Madison, Wis.) were added into a well of 96-well plate. The luminescence was detected by using luminescence microplate reader, LumiCount (Packard, Boston, Mass.). For the β-galactosidase activity assay, […] β-galactosidase assay buffer (Clontech, Palo Alto, Calif.) were added into a well of 96-well plate. The β-galactosidase activity was measured as luminescence strength by using luminescence microplate reader, LumiCount (Packard, Boston, Mass.). The normalized reporter activity was calculated by the luciferase activity divided by that of β-galactosidase.
The transient transfection reporter assay was used to determine the estrogenic or antiestrogenic activity of tested compounds in employed human breast cancer cells, MCF-7 cells that are cotransfected with hERα expression and reporter plasmids. […] […] The estrogenic (antiestrogenic) activity was determined by dividing the luciferase activity by the β-galactosidase activity. To determine the influence of estrogen receptor's major coactivator in breast cancer, AIB1, for the compounds' estrogenic activity, the expression vector of AIB1 was additionally cotransfected with the plasmids mentioned above.

MCF-7 cells = test: hERα positive breast cancer cell proliferation assay; type: cell-based, human
Protocol: (§1) MCF-7 or MDA-MB-231 cells were inoculated into 12-well culture plates at 10000 cells in 2 ml maintained medium per well. Cells were allowed to attach to the bottom for 24 hrs incubation, then the seeding medium was removed and replaced by the experimental medium (phenol red-free DMEM supplemented with 5% charcoal-stripped fetal bovine serum and Penicillin (100 unit/ml)/Streptomycin ([…])). After 24 hr incubation, the test molecules dissolved in DMSO were added in the wells. […] The culture was continued for 3 days and the medium and tested compounds were replaced every two days. The final cell numbers were estimated with CellTiter proliferation assay kit (Promega, Madison, Wis.) by measuring the absorbance at 570 nm, which is directly proportional to the number of living cells in the culture.
MCF-7 cell line was used to perform this assay and the description of this assay as mentioned above. […] DMSO was used as reference.

MDA-MB-231 cells = test: hER negative breast cancer cell proliferation assay; type: cell-based, human; details: hER negative cell line
Protocol: as §1
In this assay, MDA-MB-231 breast cancer cell line, a hER negative cell line, was used. DMSO was used as reference.

mutant hART877A = biological target: T3, mutant hART877A (Homo sapiens, UniProt P10275, T878A); test: Transient transfection reporter assay in LNCaP cells expressing mutant hAR; type: cell-based
T3 construct: LNCaP cells expressing a novel mutant hART877A; endogenous in cells; host or cells: LNCaP prostate cancer cells (transfected only with reporter plasmids, as far as printed)
T3 sequence (P10275 1-920 T878A): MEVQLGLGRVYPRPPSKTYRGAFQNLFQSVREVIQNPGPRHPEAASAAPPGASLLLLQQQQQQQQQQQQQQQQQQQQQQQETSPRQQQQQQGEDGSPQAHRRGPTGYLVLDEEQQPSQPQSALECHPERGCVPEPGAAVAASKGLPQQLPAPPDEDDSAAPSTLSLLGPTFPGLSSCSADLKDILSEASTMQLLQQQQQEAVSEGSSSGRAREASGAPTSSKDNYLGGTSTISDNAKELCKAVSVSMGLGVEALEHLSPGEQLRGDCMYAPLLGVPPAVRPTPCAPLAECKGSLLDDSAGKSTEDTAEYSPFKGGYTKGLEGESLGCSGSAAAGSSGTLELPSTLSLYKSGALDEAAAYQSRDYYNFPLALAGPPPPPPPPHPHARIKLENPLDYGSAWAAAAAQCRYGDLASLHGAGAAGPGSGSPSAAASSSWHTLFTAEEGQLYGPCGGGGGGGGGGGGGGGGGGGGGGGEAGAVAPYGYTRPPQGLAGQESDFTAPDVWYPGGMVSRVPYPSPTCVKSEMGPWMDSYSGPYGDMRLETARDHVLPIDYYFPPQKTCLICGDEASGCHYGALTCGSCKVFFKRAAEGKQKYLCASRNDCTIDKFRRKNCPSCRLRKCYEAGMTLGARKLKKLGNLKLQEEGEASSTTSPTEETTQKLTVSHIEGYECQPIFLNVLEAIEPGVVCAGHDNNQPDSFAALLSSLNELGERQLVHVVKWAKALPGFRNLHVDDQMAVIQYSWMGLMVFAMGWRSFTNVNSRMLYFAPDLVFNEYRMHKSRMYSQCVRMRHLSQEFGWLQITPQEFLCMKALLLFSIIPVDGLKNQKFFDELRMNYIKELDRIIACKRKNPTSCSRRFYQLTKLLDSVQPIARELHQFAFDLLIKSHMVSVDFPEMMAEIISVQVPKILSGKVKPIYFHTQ
Text: To determine the agonist and antagonist activity of these compounds, the transient transfection reporter assay in HepG2 cells were employed. […] Apart from the testing against wild type hAR, because hAR mutation is one of the important factors for antiandrogen-resistant symptoms discovered in advance prostate cancer patients, we also employed transient transfection reporter assay in the prostate cancer cell line, LNCaP cells expressing a novel mutant hART877A.

Row | SMILES | Relative Binding Affinity (hER) | inhibitory activity against hERα dimerization in combination with estrogen (hERα [1]; combined with estrogen) | induction of hERα dimerization, compound alone (hERα [1]; tested alone) | Relative Estrogenic Activity (hERα [2]; MCF-7 cells transfected with hERα, DMSO set as 1) | estrogenic effect (hERα [2]; MCF-7 cells, hERα, compared with DMSO and tamoxifen) | Relative Antiestrogenic Activity at 2.5 μM (hERα [2]; with 1 nM estradiol, 1 nM E2 used as reference (1)) | inhibition effects against MCF-7 cell proliferation (MCF-7 cells) | activity at 5 µM (MCF-7 cells; Homo sapiens, MCF7, 72 h, MCF-7 cells, DMSO = 1, read-out: Relative Cancer Cell Proliferation Effects at 5 μM) [%] | proliferation effects against MDA-MB-231 cells (FIG. 6, words) (MDA-MB-231 cells) | agonistic effects against mutant hART877A (mutant hART877A)
1 | CCCCNC(=O)CCCCCCCCCCOCC1Cc2ccccc2CN1C(=O)c1cccc(F)c1 (stereo not shown) [Compound 2] | 0.287 | weak inhibitory activity | did not induce the dimerization of hERα | 0.9 | do not exert any estrogenic effects | 0.75 | slightly lower inhibition effects than compound 6 | 66 | do not inhibit or stimulate the growth | 
2 | C[C@]1(O)CC[C@H]2[C@@H]3CCC4=CC(=O)CCC4=C3C=C[C@@]21C [Compound R1881, R1881] |  |  |  |  |  |  |  |  |  | significant agonism activity
